Format in all cases: physicochemical
A short description of series [1]: Hygroscopicity of crystalline form.
Series [2] can be described thus: Dissolution in 900 mL FaSSIF medium at pH 6.5 (FIG. 20). To be noted: pH 6.5, capsules in blend. As for the experimental part:
FIG. 20: Dissolution rates of different compositions in 900 mL FaSSIF medium at pH 6.5. The different compositions are: 25 mg ASD capsule HPMC AS MG 1/3 in blend; 50 mg ASD capsule HPMC AS MG 1/1 in blend; 50 mg ASD capsule EL100-55 1/1 in blend; 50 mg LFHG PEG1500 (liquid filled) capsule; 100 mg capsule amorphous API in blend; 25 mg ASD capsule EL100-55 1/3 in blend; and 100 mg capsule crystalline API in blend.

Series [3] in a line: Crystalline conversion of isolated amorphous Compound A on storage.
A short description of series [4]: Stability of amorphous formulations by XRD at normal and accelerated conditions. How it is done: Stability of the prepared formulations of Compound A was measured by XRD at normal and accelerated conditions, showing that all the prepared formulations of the compound, be it alone or combined with a polymer, are amorphous.
Series [5] in a line: 2-phase (SGF/FaSSIF) miniaturized dissolution of films. To be noted: SGF-FaSSIF, 37° C., films with 200 μg Compound A. As for the experimental part:
In vitro, 2-phase (SGF/FaSSIF) miniaturized dissolution was performed, where the amount of dissolved compound A was monitored in function of time. Before starting the dissolution assay, the films were stored for one day at room temperature. By doing so, most of the residual solvent had evaporated. Actual dissolution experiments were performed in 96 1 mL glass vials using the Hamilton STAR plus liquid handling platform for both sampling and sample preparation. Before adding the dissolution media to the films, an equilibration time of approximately 60 minutes was needed to preheat the media to 37° C. After equilibration, 300 μL of preheated SGF (37° C., pH 1.3) was added to the amorphous solid dispersions. After 15 minutes of incubation in SGF, 600 μL of preheated concentrated FaSSIF (37° C., pH 10.5) was added to the samples. […] At predetermined time intervals, aliquots were withdrawn from the dissolution media and filtered through a 0.45 μm GHP membrane filter. Subsequently, the filtered solutions were quantitatively diluted (10×) with N-methylpyrrolidone (NMP) to prevent possible precipitation. The amount of dissolved compound A was determined by UPLC. Films were incubated at 37° C. throughout the entire assay. Experiments were performed in duplicate.

Series [6] is described as follows: Glass transition temperature (Tg) by DSC, Tg vs % RH. To be noted: amorphous Compound A without polymer. How it is done:
The Tg vs RH results for HPMCAS-LG amorphous SDDs (FIG. 18 and Table 10) show the Tg's range from 111 to 119° C. under dry conditions and are depressed down to 52 to 59° C. at 75% RH. Both dry and wet Tg increase with increased drug loading.
Background: DSC measures the heat that a sample takes up or gives off during a temperature scan.

Take `O=C(Nc1ccnc(C(F)(F)F)c1)c1cnn(-c2cccc3c(=O)[nH]ccc23)c1C(F)(F)F` [Form I, 1-(1-oxo-1,2-dihydroisoquinolin-5-yl)-5-(trifluoromethyl)-N-[2-(trifluoromethyl)pyridin-4-yl]-1H-pyrazole-4-carboxamide]: the hygroscopicity entry in series [1] is on record as “hygroscopic behavior”. Besides, the dissolution rate result in series [2] is on record as “dropped considerably”.
As to `O=C(Nc1ccnc(C(F)(F)F)c1)c1cnn(-c2cccc3c(=O)[nH]ccc23)c1C(F)(F)F` [amorphous form of Compound A, 1-(1-oxo-1,2-dihydroisoquinolin-5-yl)-5-(trifluoromethyl)-N-[2-(trifluoromethyl)pyridin-4-yl]-1H-pyrazole-4-carboxamide], the “solid state after storage (stability DSC data)” value in series [3] (6 MOS at 40°/75% RH, open-dish) is on record as “still amorphous”. Moreover, the “crystalline conversion after exposure” value in series [3] (10% RH, 50° C., 28 days) is reported as “no crystalline conversion”; in series [3] (75% RH, 40° C., open condition, 6 months), “no crystalline conversion”; in series [3] (75% RH, 50° C., 28 days) it was “no crystalline conversion”; in series [3] (75% RH, 50° C., closed condition, 6 months) it was “no crystalline conversion”. Also, the XRD result in series [4] (40° C. closed 1M), in series [4] (40° C. closed 2M), in series [4] (40° C. closed 6M), in series [4] (40° C./75% RH open 6M), in series [4] (40° C/75% RH open 1M) and in series [4] (40° C/75% RH open 2M) was “amorph” each time. Also, the XRD result in series [4] (50° C. closed 1M), in series [4] (50° C. closed 2M), in series [4] (50° C. closed 6M), in series [4] (RT closed 1M), in series [4] (RT closed 2M) and in series [4] (RT closed 6M) was “amorph” each time. In addition, the XRD result in series [4] (RT/56% RH open 1M), in series [4] (RT/56% RH open 2M), in series [4] (RT/56% RH open 6M) and in series [4] (T0) was “amorph” throughout. Moreover, the “initial release, concentration” value in series [5] lay within 60 to 80 µg/mL. The results for the glass transition temperature in series [6] and in series [6] (listed as spray dried Compound A) were 133 °C and 132 °C, respectively.

These data come from patent US20220056012A1, “AMORPHOUS FORM OF A MALT1 INHIBITOR AND FORMULATIONS THEREOF” (Janssen Pharmaceutica NV, priority 2020, published 2022).
